# Test results published in article PMC6290777, “Inhalation of the prodrug PI3K inhibitor CL27c improves lung function in asthma and fibrosis” (Nature Communications, 2018).
# Several values for one entry are separate records, joined by “and”; a condition that tells them apart may be missing. Identical values can stand only once.
# Tests used:
# [1] = test system: Akt phosphorylation (Ser473) in murine neutrophils; assay: Akt phosphorylation in primary neutrophils stimulated with C5a; assay type: cell-based, mouse; conditions: C5a 25 nM
# Procedure: Neutrophils were obtained from bone marrow isolated from femurs and tibias of C57BL/6J mice. Isolated bone marrow cells were centrifuged 12 min at 260× g and resuspended in 2 ml of physiologic salt solution and neutrophils were subsequently isolated after centrifugation (30 min at 1100× g, 4 °C without brake) through 3 Percoll gradients (from bottom to top: solution B, 75% of a 90% Percoll and 10% HBSS stock solution; solution C, 64% of a 90% Percoll and 10% HBSS stock solution; solution D 52% of a 90% Percoll and 10% HBSS stock solution). Once collected at the interface between the solution B and solution C, the cells were washed three times with 10 ml of physiologic salt solution and centrifuged for 5 min at 260 × g, 4 °C and pretreated for 1 h with CL27c at different concentration. After stimulation with C5a protein were extracted with Laemnli buffer.
# For all cell types, phosphorylated Akt (P-Akt, Ser 473, 1:100, Cell Signaling Technology #4060) production was detected by western blot analysis and quantified with ChemiDoc™ XRS system. P-Akt signals are normalized on endogenous. […] To derive the EC50, all data were plotted on a dose response curve (Graph Pad software) and the EC50 was calculated by using the non-linear regression fit (equation [log agonist] vs response–variable slope). […]
# panel). […] The respective EC50 was calculated by using nonlinear
# [2] = target: T1, PI3Kα (Homo sapiens, UniProt P42336); assay: Kinome profiling assay (Nanosyn 250-kinase panel); assay type: biochemical
# T1 construct: purchased Nanosyn Biology, Inc., Santa Clara, CA, USA
# T1 sequence (P42336 whole entry, species assumed): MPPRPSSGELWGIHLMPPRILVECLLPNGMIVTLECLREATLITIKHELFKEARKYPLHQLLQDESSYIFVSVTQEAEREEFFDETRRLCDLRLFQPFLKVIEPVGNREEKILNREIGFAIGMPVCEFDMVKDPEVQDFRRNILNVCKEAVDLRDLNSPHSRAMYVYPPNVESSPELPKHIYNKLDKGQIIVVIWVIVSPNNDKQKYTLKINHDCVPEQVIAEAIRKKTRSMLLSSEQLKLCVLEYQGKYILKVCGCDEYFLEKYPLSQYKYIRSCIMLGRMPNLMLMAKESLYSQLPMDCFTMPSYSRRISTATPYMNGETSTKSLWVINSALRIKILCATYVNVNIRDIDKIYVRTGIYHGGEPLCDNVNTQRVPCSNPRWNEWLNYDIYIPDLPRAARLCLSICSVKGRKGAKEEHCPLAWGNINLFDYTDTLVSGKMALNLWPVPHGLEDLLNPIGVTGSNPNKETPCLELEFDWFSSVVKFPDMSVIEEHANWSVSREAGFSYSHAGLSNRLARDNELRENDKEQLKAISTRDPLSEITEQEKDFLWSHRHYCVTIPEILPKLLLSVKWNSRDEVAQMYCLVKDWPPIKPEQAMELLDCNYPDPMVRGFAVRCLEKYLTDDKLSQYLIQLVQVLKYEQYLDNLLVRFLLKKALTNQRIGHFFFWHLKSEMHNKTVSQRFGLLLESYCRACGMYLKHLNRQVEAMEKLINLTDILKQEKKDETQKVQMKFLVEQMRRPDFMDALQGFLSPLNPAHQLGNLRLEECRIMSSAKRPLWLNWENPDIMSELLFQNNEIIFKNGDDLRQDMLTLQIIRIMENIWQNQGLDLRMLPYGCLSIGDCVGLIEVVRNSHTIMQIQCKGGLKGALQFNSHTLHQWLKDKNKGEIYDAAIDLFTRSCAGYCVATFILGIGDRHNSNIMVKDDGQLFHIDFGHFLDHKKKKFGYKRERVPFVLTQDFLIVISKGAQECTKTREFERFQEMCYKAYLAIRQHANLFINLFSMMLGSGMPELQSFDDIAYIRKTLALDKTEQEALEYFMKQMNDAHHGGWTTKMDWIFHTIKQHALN
# T1 sequence (P27986 whole entry partner, species assumed): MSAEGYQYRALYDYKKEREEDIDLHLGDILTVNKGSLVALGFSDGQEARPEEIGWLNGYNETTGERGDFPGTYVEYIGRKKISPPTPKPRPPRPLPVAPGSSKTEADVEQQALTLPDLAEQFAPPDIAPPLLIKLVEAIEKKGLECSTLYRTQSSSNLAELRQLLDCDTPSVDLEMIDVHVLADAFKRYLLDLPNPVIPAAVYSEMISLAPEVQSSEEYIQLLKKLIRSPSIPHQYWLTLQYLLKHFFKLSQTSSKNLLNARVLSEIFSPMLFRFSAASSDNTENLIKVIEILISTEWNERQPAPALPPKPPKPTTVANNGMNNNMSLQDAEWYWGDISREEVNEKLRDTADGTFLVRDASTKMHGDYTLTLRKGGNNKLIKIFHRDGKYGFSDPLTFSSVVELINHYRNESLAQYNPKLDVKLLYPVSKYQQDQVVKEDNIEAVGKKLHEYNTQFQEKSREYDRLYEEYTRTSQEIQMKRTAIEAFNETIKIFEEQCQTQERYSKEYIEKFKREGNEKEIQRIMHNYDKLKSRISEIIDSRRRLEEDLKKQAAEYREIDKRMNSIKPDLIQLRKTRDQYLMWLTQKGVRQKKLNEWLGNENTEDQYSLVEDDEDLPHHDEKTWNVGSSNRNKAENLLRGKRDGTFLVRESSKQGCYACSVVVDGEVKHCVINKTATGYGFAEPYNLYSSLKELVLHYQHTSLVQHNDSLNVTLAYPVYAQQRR
# Procedure: Supplementary Figure 2: Kinase selectivity of CL27e
# Kinase selectivity of the CL27c active metabolite, CL27e, was evaluated at 0.02 µM and 0.2 µM using the Nanosyn 250-kinase panel. Red color indicates selectivity for PI3Kα, on which CL27e […]
# Results are expressed as mean percentage inhibition for each
# (1 picture or pasted object on this page, not shown here)
# Human lung fibroblast cell culture
# Two separate human lung fibroblast cell lines isolated from IPF patients were used: LL97a derived from a person (ATCC, Manassas, USA) and DHLF-IPF (#CC-7231, Lonza, Switzerland). Control cell lines were CCD-16Lu, obtained from a person that died of astrocytoma –a disease unrelated to IPF - (ATCC) and NHLF (#CC-2512; Lonza). […]
# Caliper based assay, the reaction was terminated by addition of EDTA buffer. Substrate and product were separated and quantified electrophoretically using the microfluidic-based and the assay plate was read on Caliper LabChip 3000 Drug Discovery System from Caliper Life Sciences (Walthan, MA, USA). ADP Glo was another method of detection used for some kinase assays where data was obtained by quantifying the intensity of luminescence. For ADP Glo based assay, the reaction was terminated by applying the Promega ADP Glo Kinase Assay kit and the assay plate was read on a LJL Biosystems Analyst HT. […]
SMILES,Akt/PKB phosphorylation [1],"inhibition of PI3Kα ([2]; high concentration (0.2 µM), 0.2 µM)",inhibition of PI3Kα ([2]; low concentration (0.02 µM)) [%]
COC(=O)c1cccc(Cn2cc(-c3cccc4c(=O)cc(N5CCOCC5)[nH]c34)nn2)c1 [CL27c],readily reduced Akt/PKB phosphorylation,,
O=C(O)c1cccc(Cn2cc(-c3cccc4c(=O)cc(N5CCOCC5)[nH]c34)nn2)c1 [CL27e],,> 80% and 81%,23
